pIC50: −log10 of the molar value.
Key:
CYP2C9 = target: T1, CYP2C9 (Homo sapiens, UniProt P11712); test: Cytochrome P450 enzyme assay, CYP2C9 (Gentest Supersomes, fluorometric); assay type: in vitro ADME; details: human recombinant enzyme, mean IC50; read-out: CP450 2C9 IC50
T1 construct: purchased Gentest Corporation P258
Experimental: (§1) In vitro assays to determine the concentration of the compounds provided herein required for 50% inhibition of substrate metabolism (IC50) by different human cytochrome P450 enzymes (2C9, 2C19, 3A4) were conducted using human recombinant cytochrome P450 enzyme assays, developed by Gentest Corporation. These assays contain Gentest Supersomes™ (specific human cytochrome P450 enzyme, co-expressed with P450 reductase and cytochrome b5), a NADPH regenerating system, substrate and a concentration range of the compounds provided herein. The fluorescent product was the measured end point for these assays. IC50s were calculated using a four-parameter logistic equation with the bottom fixed at 0% inhibition and the top fixed at 100% inhibition. (Values are the mean IC50±SD when n is greater than 1.)
(§2) Assays were conducted in 96-well microtiter plates using fluorometric assays developed by Gentest Corporation. The 12 wells in each row were used for one inhibition curve. Wells 1 to 8 contained serial 1:3 dilutions of the test compound. Wells 9 to 12 contained no inhibitor and wells 11 and 12 were blanks for background fluorescence (stop solution was added before the enzyme). All concentration curves were performed in duplicate. Incubations were initiated by the addition of enzyme and substrate to the pre-warmed reaction mixture. After a specific incubation period, the reaction was stopped by the addition of stop solution. Metabolite production per well was determined by measuring fluorescence using a fluorescent plate reader. Detailed experimental procedures for each enzyme are listed below. See, generally, Methodology of a high throughput method for measuring cytochrome P450 inhibition (Gentest Corporation, Technical Bulletin); Crespi, C. L.; Miller, V. P.; and Penman, B. W. (1997) Anal. Biochem. 248:188-190; and Geungerich, F. P. (1997) Adv. Pharm. 43:7-35.
A 0.2 ml/well reaction mixture containing 2 pmol CYP2C9 (P258), 1.3 mM NADP^+, 3.3 mM glucose-6-phosphate, 3.3 mM magnesium chloride, 0.4 U/ml glucose-6-phosphate dehydrogenase and 75 μM 7-methoxy-4-trifluoromethylcoumarin in […] (pH 7.4), was incubated at 37° C. for 45 minutes. Sulfaphenazole, a standard inhibitor of CYP2C9, was serially diluted from the highest concentration of 10 μM and acted as a positive control. […] After incubation, the reaction was stopped by the addition of 75 μl stop solution (80% acetonitrile/20% 0.5 M Tris base) and fluorescence/well was measured using a Spectra Fluor (Tecan) or Cytoflour 2350 (Millipore) fluorescent plate reader. […]
(§3) The “% inhibition” was calculated as follows: [formula]
(§4) Concentration versus % inhibition curves were constructed in Prism (GraphPad, Inc.). The data was analyzed using “Top & Bottom Fixed” routine. […]

CYP2C19 = target: T2, CYP2C19 (Homo sapiens, UniProt P33261); test: Cytochrome P450 enzyme assay, CYP2C19 (Gentest Supersomes, fluorometric); assay type: in vitro ADME; details: human recombinant enzyme, mean IC50; read-out: CP450 2C19 IC50
T2 construct: purchased Gentest Corporation P259
T2 sequence (P33261 whole entry): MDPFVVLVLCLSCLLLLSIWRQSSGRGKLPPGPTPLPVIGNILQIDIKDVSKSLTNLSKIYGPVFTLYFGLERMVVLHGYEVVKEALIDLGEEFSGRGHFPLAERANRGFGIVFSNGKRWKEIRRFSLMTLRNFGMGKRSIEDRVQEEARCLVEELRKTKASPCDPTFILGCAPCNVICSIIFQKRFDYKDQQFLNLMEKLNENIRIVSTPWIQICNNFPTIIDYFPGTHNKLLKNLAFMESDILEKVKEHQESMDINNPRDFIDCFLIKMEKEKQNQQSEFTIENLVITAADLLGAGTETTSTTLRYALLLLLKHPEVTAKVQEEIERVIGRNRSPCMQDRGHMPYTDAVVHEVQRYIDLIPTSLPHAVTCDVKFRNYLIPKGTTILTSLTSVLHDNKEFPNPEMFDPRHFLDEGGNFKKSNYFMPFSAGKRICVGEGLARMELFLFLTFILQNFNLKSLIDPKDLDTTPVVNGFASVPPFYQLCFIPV
Experimental: as §1, §2
A 0.2 ml/well reaction mixture containing 1 pmol CYP2C19 (P259), 1.3 mM NADP^+, 3.3 mM glucose-6-phosphate, 3.3 mM magnesium chloride, 0.4 U/ml glucose-6-phosphate dehydrogenase and 25 μM 3-cyano-7-ethoxycoumarin in 50 mM potassium phosphate (pH 7.4), was incubated at 37° C. for 45 minutes. Tranylcypromine, a standard inhibitor of CYP2C19, was serially diluted from the highest concentration of 500 μM and acted as a positive control. The test compound was serially diluted from the highest concentration of 100 μM. After incubation, the reaction was stopped by the addition of 75 μl stop solution (80% acetonitrile/20% 0.5 M Tris base) and fluorescence/well was read within 1 hour using a Spectra Fluor (Tecan) fluorescent plate reader. […]
as §3, §4

T1 sequence (P11712 whole entry): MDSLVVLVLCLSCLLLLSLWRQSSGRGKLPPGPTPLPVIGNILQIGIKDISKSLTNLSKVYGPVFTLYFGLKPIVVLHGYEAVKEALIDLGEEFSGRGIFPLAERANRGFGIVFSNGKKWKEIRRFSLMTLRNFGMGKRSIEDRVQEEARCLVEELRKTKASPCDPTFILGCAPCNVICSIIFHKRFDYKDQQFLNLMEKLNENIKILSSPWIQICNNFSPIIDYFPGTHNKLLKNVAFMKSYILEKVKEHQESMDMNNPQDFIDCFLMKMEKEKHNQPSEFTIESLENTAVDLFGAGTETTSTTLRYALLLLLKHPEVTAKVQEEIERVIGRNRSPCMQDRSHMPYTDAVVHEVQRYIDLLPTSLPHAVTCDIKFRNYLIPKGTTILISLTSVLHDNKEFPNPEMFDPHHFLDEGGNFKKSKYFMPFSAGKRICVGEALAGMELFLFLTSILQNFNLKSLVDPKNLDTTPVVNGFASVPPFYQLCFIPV

Structure (SMILES) | pIC50 (CYP2C9) | pIC50 (CYP2C19)
CC(=O)c1cc(C)cc(C)c1NC(=O)c1sccc1S(=O)(=O)Nc1onc(C)c1C [Compound 7, N-(2-acetyl-4,6-dimethylphenyl)-3-{[(3,4 dimethyl-5-isoxazolyl)amino]sulfonyl}-2-thiophenecarboxamide] | 5.12 | 3.90
Cc1cc(C)c(NC(=O)c2sccc2S(=O)(=O)Nc2onc(C)c2Cl)c(Cl)c1 [Compound 34, N-(2-chloro-4,6-dimethylphenyl)-3-{[(4-chloro-3-methyl-5-isoxazolyl)amino]sulfonyl}2-thiophenecarboxamide] | 6.25 | 5.34
Cc1cc(C)c(NC(=O)c2sccc2S(=O)(=O)Nc2onc(C)c2Cl)c(S(C)(=O)=O)c1 [Compound 42, 3-{[(4-chloro-3-methyl-5-isoxazolyl)amino]sulfonyl)-N-[2,4-dimethyl-6-(methylsulfonyl)phenyl]-2-thiophenecarboxamide] | 5.28 | 5.21
Cc1cc2c(cc1CC(=O)c1sccc1S(=O)(=O)Nc1onc(C)c1Cl)OCO2 [N-(4-chloro-3-methyl-5-isoxazolyl)-2-{[3,4-(methylenedioxy)-6-methylphenyl)acetyl]-thiophene-3-sulfonamide, reference compound] | 7.52 | 6.70

— patent US6686382B2, “Sulfonamides and derivatives thereof that modulate the activity of endothelin” (Encysive Pharmaceuticals Inc., priority 1999, dated 2004)
